These results are taken from the supplement of paper PMC10307832.

What all share (assay): relative viability (nuclei count vs DMSO), 5 days (fraction); higher = more cells survive
Compound in test [1]: CC1=C(C(=NN1)C)CC2=C(C3=C(S2)N(C(=O)N(C3=O)C)CC(C)C)C(=O)N4C[C@@H](CO4)O + CS(=O)(=O)CCNCc1ccc(-c2ccc3ncnc(Nc4ccc(OCc5cccc(F)c5)c(Cl)c4)c3c2)o1 [Lapatinib] (partner 2 µM)
The gist of the method:
(§1)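 Cells from lung cancer lines were seeded into 1536-well plates and, one day later, dosed by pin tool. Treatments were either a single drug or a fixed dose of an anchor drug with five library-drug doses (not always all listed) in √10 steps. After 5 days, nuclei were stained in a one-step fixation (final 0.05% Triton X-100, 1% formaldehyde, 1 ug/ml Hoechst) and counted on 4× images, and relative viability is the treated-to-vehicle nuclei ratio, as the median of duplicate plates.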

Compound in test [2]: CC1=C(C(=NN1)C)CC2=C(C3=C(S2)N(C(=O)N(C3=O)C)CC(C)C)C(=O)N4C[C@@H](CO4)O + Cc1nc(Nc2ncc(C(=O)Nc3c(C)cccc3Cl)s2)cc(N2CCN(CCO)CC2)n1 [Dasatinib] (partner 0.075 µM)
The gist of the method: as §1

Compound in the test “IDH-C35 + Crizotinib”: Cc1ccccc1C(C(=O)NC1CCCCC1)N(C(=O)Cn1ccnc1C)c1cccc(F)c1 [IDH-C35] + C[C@@H](Oc1cc(-c2cnn(C3CCNCC3)c2)cnc1N)c1c(Cl)ccc(F)c1Cl [Crizotinib] (partner 1 µM)
Put shortly:
as §1

Compound in the test “IDH-C35 + Olaparib”: Cc1ccccc1C(C(=O)NC1CCCCC1)N(C(=O)Cn1ccnc1C)c1cccc(F)c1 [IDH-C35] + O=C(c1cc(Cc2n[nH]c(=O)c3ccccc23)ccc1F)N1CCN(C(=O)C2CC2)CC1 [Olaparib] (partner 8 µM)
Put shortly: as §1

RERF-LC-KJ: the relative viability in test [1] (first compound 0.0025 µM) came to 0.899; in test [1] (first compound 0.007906 µM), 0.928; in test [1] (first compound 0.025 µM), 0.86; in test [1] (first compound 0.07906 µM), 0.885; in test [1] (first compound 0.25 µM), 0.941; in test [2] (first compound 0.0025 µM) it was 0.874. The relative viability was 0.946 in test [2] (first compound 0.007906 µM); 0.751 in test [2] (first compound 0.025 µM); 0.855 in test [2] (first compound 0.07906 µM); 0.804 in test [2] (first compound 0.25 µM); 0.887 with IDH-C35 + Crizotinib (first compound 0.08 µM); 0.822 in the test with IDH-C35 + Crizotinib (first compound 0.253 µM). Also, the relative viability turned out to be 0.794 with IDH-C35 + Crizotinib (first compound 0.8 µM); 0.904 with IDH-C35 + Crizotinib (first compound 2.53 µM); 0.763 with IDH-C35 + Crizotinib (first compound 8 µM); 0.853 with IDH-C35 + Olaparib (first compound 0.08 µM); 0.896 with IDH-C35 + Olaparib (first compound 0.253 µM); 0.963 in the test with IDH-C35 + Olaparib (first compound 0.8 µM). In addition, the relative viability with IDH-C35 + Olaparib (first compound 2.53 µM) was found to be 0.985; with IDH-C35 + Olaparib (first compound 8 µM), 0.869.
As to SK-LU-1, the relative viability was 0.805 in test [1] (first compound 0.0025 µM); 0.425 in test [1] (first compound 0.007906 µM); 0.263 in test [1] (first compound 0.025 µM); 0.295 in test [1] (first compound 0.07906 µM); 0.4 in test [1] (first compound 0.25 µM); 0.194 in test [2] (first compound 0.0025 µM). The relative viability in test [2] (first compound 0.007906 µM) turned out to be 0.195; in test [2] (first compound 0.025 µM) it was 0.192; in test [2] (first compound 0.07906 µM), 0.169; in test [2] (first compound 0.25 µM) it was 0.182; with IDH-C35 + Crizotinib (first compound 0.08 µM), 0.881; in the test with IDH-C35 + Crizotinib (first compound 0.253 µM) it was 0.797. In addition, the relative viability in the test with IDH-C35 + Crizotinib (first compound 0.8 µM) is 0.948; in the test with IDH-C35 + Crizotinib (first compound 2.53 µM), 0.904; in the test with IDH-C35 + Crizotinib (first compound 8 µM), 0.881; in the test with IDH-C35 + Olaparib (first compound 0.08 µM) it was 0.422; with IDH-C35 + Olaparib (first compound 0.253 µM) it was 0.399; with IDH-C35 + Olaparib (first compound 0.8 µM), 0.396. In addition, the relative viability with IDH-C35 + Olaparib (first compound 2.53 µM) was 0.484; with IDH-C35 + Olaparib (first compound 8 µM), 0.448.
In the case of SK-MES-1, the relative viability worked out at 0.474 in test [1] (first compound 0.0025 µM); 0.462 in test [1] (first compound 0.007906 µM); 0.445 in test [1] (first compound 0.025 µM); 0.434 in test [1] (first compound 0.07906 µM); 0.454 in test [1] (first compound 0.25 µM); 0.389 in test [2] (first compound 0.0025 µM). Further, the relative viability in test [2] (first compound 0.007906 µM) came out at 0.367; in test [2] (first compound 0.025 µM) it was 0.371; in test [2] (first compound 0.07906 µM), 0.337; in test [2] (first compound 0.25 µM), 0.314; in the test with IDH-C35 + Crizotinib (first compound 0.08 µM), 1.05; with IDH-C35 + Crizotinib (first compound 0.253 µM), 0.953. Also, the relative viability in the test with IDH-C35 + Crizotinib (first compound 0.8 µM) was 0.912; in the test with IDH-C35 + Crizotinib (first compound 2.53 µM) it was 0.937; with IDH-C35 + Crizotinib (first compound 8 µM), 0.986; with IDH-C35 + Olaparib (first compound 0.08 µM), 0.737; with IDH-C35 + Olaparib (first compound 0.253 µM), 0.728; in the test with IDH-C35 + Olaparib (first compound 0.8 µM), 0.609. For the same cell line, the values for the relative viability with IDH-C35 + Olaparib (first compound 2.53 µM) and in the test with IDH-C35 + Olaparib (first compound 8 µM) were 0.693 and 0.631, respectively.
Take SW 1573: the relative viability in test [1] (first compound 0.0025 µM) worked out at 1.09; in test [1] (first compound 0.007906 µM), 1.02; in test [1] (first compound 0.025 µM), 1.05; in test [1] (first compound 0.07906 µM), 1.04; in test [1] (first compound 0.25 µM), 1.19; in test [2] (first compound 0.0025 µM) it was 0.451. Moreover, the relative viability in test [2] (first compound 0.007906 µM) stood at 0.681; in test [2] (first compound 0.025 µM), 0.402; in test [2] (first compound 0.07906 µM) it was 0.501; in test [2] (first compound 0.25 µM) it was 0.597; with IDH-C35 + Crizotinib (first compound 0.08 µM), 0.759; with IDH-C35 + Crizotinib (first compound 0.253 µM), 0.889. The relative viability with IDH-C35 + Crizotinib (first compound 0.8 µM) is 0.798; with IDH-C35 + Crizotinib (first compound 2.53 µM) it was 1.01; in the test with IDH-C35 + Crizotinib (first compound 8 µM), 0.713; with IDH-C35 + Olaparib (first compound 0.08 µM) it was 0.5; with IDH-C35 + Olaparib (first compound 0.253 µM) it was 0.54; with IDH-C35 + Olaparib (first compound 0.8 µM), 0.496. Further, the relative viability with IDH-C35 + Olaparib (first compound 2.53 µM) is 0.433; with IDH-C35 + Olaparib (first compound 8 µM), 0.467.
UMC-11: the relative viability in test [1] (first compound 0.0025 µM) turned out to be 1.12; in test [1] (first compound 0.007906 µM) it was 1.03; in test [1] (first compound 0.025 µM), 0.957; in test [1] (first compound 0.07906 µM), 1.01; in test [1] (first compound 0.25 µM), 1.05; in test [2] (first compound 0.0025 µM), 0.435. Besides, the relative viability in test [2] (first compound 0.007906 µM) was 0.468; in test [2] (first compound 0.025 µM), 0.451; in test [2] (first compound 0.07906 µM) it was 0.348; in test [2] (first compound 0.25 µM), 0.439; in the test with IDH-C35 + Crizotinib (first compound 0.08 µM) it was 0.578; with IDH-C35 + Crizotinib (first compound 0.253 µM), 0.56. For the same cell line, the relative viability was determined as 0.481 with IDH-C35 + Crizotinib (first compound 0.8 µM); 0.576 with IDH-C35 + Crizotinib (first compound 2.53 µM); 0.629 with IDH-C35 + Crizotinib (first compound 8 µM); 0.383 with IDH-C35 + Olaparib (first compound 0.08 µM); 0.366 with IDH-C35 + Olaparib (first compound 0.253 µM); 0.402 with IDH-C35 + Olaparib (first compound 0.8 µM). Further, the relative viability in the test with IDH-C35 + Olaparib (first compound 2.53 µM) was 0.382; with IDH-C35 + Olaparib (first compound 8 µM), 0.445.
